# How the values were obtained:
# [1] = Solubility of the esters at 1 mg/ml in water and buffer solutions; settings: for solubility in Tris buffer: 10 mM Tris buffer pH 9; for solubility in acetate buffer: 10 mM acetate buffer pH 4; for solubility in phosphate buffer: 10 mM phosphate buffer pH 7; for solubility in water: water (Solution 1)
# Experimental: Indolocarbazole esters were dissolved in water, dimethylsulfoxide (DMSO) and the following buffer solutions to determine solubility and to observe conversion to indolocarbazole I-5. Samples were analyzed by HPLC using UV detection at 290 nm.
# Solution 2 was a 10 mM acetate buffer at pH 4 which was prepared by weighing 0.68 g of sodium acetate 3H2O into 500 ml of water and adjusting the pH with acetic acid.
# Solution 3 was a 10 mM phosphate buffer, pH 7, which was prepared by weighing 0.30 g of monobasic sodium phosphate and 0.36 g of dibasic sodium phosphate into 500 ml of water, stirring until completely dissolved, and adjusting the pH with hydrochloric acid.
# Solution 4 was a 10 mM Tris buffer, pH 9, which was prepared by weighing 0.79 g of Tris (tris(hydroxymethyl)aminomethane hydrochloride) into 500 ml of water, stirring until completely dissolved, and adjusting the pH with sodium hydroxide.
# Sample solutions were prepared by weighing 0.5-1 mg of the indolocarbazole ester into an amber 1.5 ml autosampler vial, to which the appropriate quantity of one of the buffer solutions was added, in order to achieve a final concentration of 1 mg/ml. The sample solutions were vortexed and sonicated for 10 minutes. Fifty μl aliquots were placed into 1.5 ml amber autosampler vials. The reaction was quenched at a selected time interval by addition of 450 μl DMSO to the vial.
# [2] = In vivo metabolism and intravenous pharmacokinetics of I-5 esters in male Sprague-Dawley rats; settings: intravenous, rat; for hydrolysis to indolocarbazole I-5 in vivo: 5 mg/kg dose of I-5 equivalent
# Experimental: Groups of 12 male Sprague-Dawley rats were administered either DMAB dihydrochloride or β-alaninate hydrochloride through the lateral tail vein in a vehicle consisting of 0.05M acetate buffer, pH 5.0 containing 20% polyethylene glycol. The volume of the dosing solution was adjusted on the basis of body weight to deliver a 5 mg/kg dose of indolocarbazole I-5 after complete hydrolysis of the respective indolocarbazole ester. At 5, 30, 60, and 120 minutes after injection, the animals were anesthetized with carbon dioxide and a sample of whole blood was obtained by cardiac puncture. The blood was placed into a 10 mL heparinized tube containing 100 μL 50% potassium fluoride (an inhibitor of plasma esterases). Following centrifugation, the resulting plasma was frozen in a dry-ice/isopropanol bath and kept frozen at −90° C. prior to analysis.
# (§1) For analysis, the samples were thawed, internal standard was added, and the mixture was extracted with 5 mL methylene chloride. Standards in rat plasma were prepared as described previously. All tubes (standards and experimentals) were extracted for 15 minutes by shaking, and centrifuged. The methylene chloride layer was removed, dried under a stream of nitrogen, and reconstituted in DMSO. Fifty μL of the reconstituted extracts were analyzed by reverse-phase HPLC with detection at 290 nm. The mobile phase and gradient conditions are the same as those given in Example 17.
# [3] = tested on: ChAT activity in spinal cord cultures; assay: Effect of indolocarbazole esters on ChAT activity in dissociated spinal cord cultures; assay type: cell-based, rat
# Experimental: The effect of indolocarbazole esters of the invention on ChAT activity was assayed in dissociated spinal cord cultures prepared from fetal rats. ChAT is the enzyme that catalyzes the synthesis of the neurotransmitter acetylcholine, and it is a specific biochemical marker for cholinergic neurons. In the spinal cord, the large majority of cholinergic neurons are motor neurons. Assay of this enzyme may thus be used as an indication of the effects of a factor (or factors) on the survival and/or differentiation of cholinergic neurons and/or regulation of this enzyme. The procedure used for the assay is that described in Example 6 of WO 94/02488. Fourteen esters were tested in the spinal cord ChAT assay to determine their relative efficacy, and the results are summarized in Table 4.
# [4] = In vitro metabolism of I-5 esters in human liver S-9 fraction; assay type: in vitro ADME; settings: 2 mg/mL protein
# Experimental: (§2) Rat and human liver S-9 fractions (a mixture of cytosol and microsomes) were frozen immediately after preparation. Each aliquot was thawed once for use in incubations. Stock solutions of the indolocarbazole esters were prepared in DMSO. These were used to prepare standard curves in heat inactivated S-9 fraction that had been diluted with 0.2M phosphate buffer, pH 7.4 to yield a 2 mg/mL protein concentration. Heat inactivated S-9 was divided into 500 μL aliquots, mixed with an aliquot of the internal standard, and spiked with the respective stock ester solutions to prepare the standard curve. Incubations containing liver S-9 fraction were prepared by diluting the S-9 fraction in 0.2M phosphate buffer, pH 7.4 to yield a 2 mg/mL protein concentration. Samples (500 μL) were placed in screw-cap vials, mixed with internal standard, and spiked with stock solutions of the respective esters to yield a nominal concentration of 5000 ng/mL.
# Incubations were then performed at 37° C. in a shaking water bath for 0, 0.5, 1, 2, 5, 10, 15, 30, and 60 minutes and quenched by addition of 5 mL methylene chloride. All tubes (standards and experimentals) were extracted for 15 minutes by shaking, and centrifuged. […] Fifty μL of the reconstituted extracts were analyzed by reverse-phase HPLC with detection at 290 nm. […]
# [5] = Stability of the esters in buffered solution (conversion to indolocarbazole I-5, HPLC); assay type: physicochemical; settings: buffer solutions, 24 hours
# Experimental: Solution 5 was a DMSO control.
# HPLC conditions were as follows:
# The pH of the compounds in water varied from 2 to 5 while the buffers remained approximately the same at 3.6, 6.7 and 7.8 for the 10 mM acetate, phosphate and Tris, respectively.
# Acetate buffers at pH 2, 3, 4, 5 and 6 were prepared as follows. A total of 6.8 g of sodium acetate trihydrate was added to one liter of water, and the mixture was stirred until the solid was completely dissolved. One hundred ml aliquots were placed into 150 ml Erlenmeyer flasks, and the pH values were adjusted with HCl to pH 2, 3, 4, 5, and 6. A concentration of 50 mM was chosen to reduce the effects of compound addition. The indolocarbazole ester of Example 14 was investigated only with the acetate buffers. The rates of conversion of I-5 (the appearance of indolocarbazole I-5) as a function of pH are shown in FIGS. 3, 4, and 5 for the indolocarbazole esters of Examples 14, 8, and 11, respectively.
# [6] = In vitro metabolism of I-5 esters in rat liver S-9 fraction; assay type: in vitro ADME; settings: 2 mg/mL protein, 5000 ng/mL
# Experimental: as §2
# Incubations were then performed at 37° C. in a shaking water bath for 0, 0.5, 1, 2, 5, 10, 15, 30, and 60 minutes and quenched by addition of 5 mL methylene chloride. All tubes (standards and experimentals) were extracted for 15 minutes by shaking, and centrifuged. The methylene chloride layer was removed, dried under a stream of nitrogen, and reconstituted in DMSO. Fifty μL of the reconstituted extracts were analyzed by reverse-phase HPLC with detection at 290 nm. The mobile phase and gradient conditions are given below: […]
# [7] = tested on: Dunning R-3327 AT-2 rat prostate tumor; assay: Anti-tumor efficacy against the androgen-independent AT-2 rat prostate tumor; assay type: in vivo; settings: for Tumor volume Day 0: Day 0, daily sc dosing; for Tumor volume Day 0 / Tumor volume Day 3 / Tumor volume Day 6 / Tumor volume Day 9 / Tumor volume Day 13: Mean ± SE; for Tumor volume Day 3: Day 3, daily sc dosing; for Tumor volume Day 6: Day 6, daily sc dosing; for Tumor volume Day 9: Day 9, daily sc dosing; for Tumor volume Day 13: Day 13, daily sc dosing; for inhibiting the growth of AT-2 tumors: adult male Copenhagen rats; for inhibition of tumor growth: by Day 13 of dosing
# Experimental: Rat prostate cancer Dunning R-3327 AT-2.1 cells (Isaacs et al., Prostate 9:261-281, 1986) were grown at 37 C. in a humidified incubator, with a 95% air/5% CO2 atmosphere, in RPMI-1640 medium containing 10% fetal calf serum, 250 nM dexamethasone, 2 mM glutamine, penicillin (100 I.U./mL), and streptomycin (100 μg/mL), and 1 mM sodium pyruvate. The cells were determined to be free of mycoplasma and rodent viruses (MAP testing) by Microbiological Associates. Exponentially growing cells were harvested using 6 mL of warm trypsin. The total volume was brought up to 10 mL with media to neutralize trypsin and cells were counted. The cells were then collected by brief centrifugation, and cell pellet was resuspended in Hanks' Balanced Salt Solution to achieve the final concentration of 1×10^7 live cells/mL.
# Male inbred Copenhagen rats (200-225 g) obtained from Harlan Sprague-Dawley, Indianapolis, Ind., were maintained three rats/cage and given a commercial diet (Purina Formulab 5001) and water ad libitum. Animals were housed under humidity- and temperature-controlled conditions and light/dark cycle was set at 12-hour intervals. Rats were quarantined for one week before experimental manipulation. Tumor cell implantation and growth
# Fifty adult male Copenhagen rats were inoculated with live AT-2 cells (1×10^6 cells/rat) into their right flank. Seven days later, rats bearing AT-2 tumors (approximately 0.5‥0.7 cm^3 in volume) were divided into five groups of ten animals each. A description of the experimental groups is given below. Dosing volumes of either I-5 or its lysyl-β-alaninate ester (1 mL/kg) were based on the average weight of the animals in each dosing group and were adjusted as necessary twice a week. Tumors were measured in anesthetized animals (isofluorane vapor for approximately 1-2 minutes) every 3-4 days using a vernier caliper. Tumor volume was calculated using the formula:
# V(cm)=0.5236×length(cm)×width(cm)[(length(cm)+width(cm))/2].
# Indolocarbazole I-5 was dissolved in vehicle defined below:
# (I-5)-Lysyl-β-alaninate was dissolved in 50 mM sodium acetate buffer, pH 5.5.
# [8] = Route-to-route comparison of indolocarbazole I-5 formation from lysyl-β-alaninate in rats; assay type: in vivo, rat; settings: for plasma levels of indolocarbazole I-5: intravenous 8.01 mg/kg
# Experimental: Groups of 12 male Sprague-Dawley rats were administered lysyl-β-alaninate dihydrochloride via intravenous or subcutaneous injection, as well as by oral gavage at a dose of 8.01 mg/kg. This dose was designed to deliver a 5 mg/kg equivalent dose of indolocarbazole I-5 following complete hydrolysis of the indolocarbazole ester. The volume of the dosing solution was adjusted on the basis of body weight. At 5, 30, 60, and 120 minutes after intravenous injection and 30, 60, 120, and 240 minutes after either subcutaneous injection or oral gavage, the animals were anesthetized with carbon dioxide and a sample of whole blood was obtained by cardiac puncture. The blood was placed into a heparinized container containing 100 μL 50% potassium fluoride (an inhibitor of plasma esterases) and 10 μL phenylmethylsulfonylfluoride (an inhibitor of plasma amidase). Following centrifugation, the resulting plasma was frozen in a dry-ice/isopropanol bath and kept frozen at −90° C. prior to analysis.
# as §1, with “extracts was” for “extracts were”
# [9] = tested on: Dunning R-3327 AT-2 rat prostate tumor; settings: see WO 94/27982; cited from earlier work
Compound,solubility in Tris buffer [1],solubility in acetate buffer [1],solubility in phosphate buffer [1],solubility in water [1],hydrolysis to indolocarbazole I-5 in vivo [2],time ester could be detected in plasma following administration [2],Spinal Cord ChAT Activity (% of Control) 500 nM [3],Spinal Cord ChAT Activity (% of Control) 1000 nM [3],rates of hydrolysis [4],rate of conversion to indolocarbazole I-5 [5],hydrolysis of the ester [6],Tumor volume Day 0 [7],Tumor volume Day 3 [7],Tumor volume Day 6 [7],Tumor volume Day 9 [7],Tumor volume Day 13 [7],inhibiting the growth of AT-2 tumors [7],inhibition of tumor growth [7],further results
"COC1(COC(=O)CC(C)N(C)C)CC2OC1(C)n1c3ccccc3c3c4c(c5c6ccccc6n2c5c31)C(=O)NC4.Cl (stereo not shown) [Example 8, (I-5)-Dimethylaminobutyrate Hydrochloride]",not completely soluble,completely soluble,not completely soluble,completely soluble,rapidly hydrolyzed,two,inactive,138 % of Control,similar,low rate of conversion,rapid hydrolysis,,,,,,,,
"COC1(COC(=O)CCN)CC2OC1(C)n1c3ccccc3c3c4c(c5c6ccccc6n2c5c31)C(=O)NC4.Cl (stereo not drawn) [Example 11, (I-5)-β-Alaninate Hydrochloride]",not completely soluble,completely soluble,not completely soluble,completely soluble,rapidly hydrolyzed,one,138 % of Control,149 % of Control,similar,,rate of hydrolysis was markedly reduced,,,,,,,,
"COC1(COC(=O)CCNC(=O)C(N)CCCCN)CC2OC1(C)n1c3ccccc3c3c4c(c5c6ccccc6n2c5c31)C(=O)NC4.Cl.Cl (stereo not drawn) [Example 14, (I-5)-Lysyl-β-Alaninate Dihydrochloride]",completely soluble,completely soluble,completely soluble,completely soluble,,,121 % of Control,147 % of Control,,low rate of conversion,initial hydrolysis of the amide bond between the two amino acids appears to be the first metabolic event followed by hydrolysis of the ester linkage,0.6 ± 0.1 cm^3,1.5 ± 0.2 cm^3,2.1 ± 0.2 cm^3,4.8 ± 0.6 cm^3,8.3 ± 0.5 cm^3,effective,72%,"plasma levels of indolocarbazole I-5 ([8]; 5 minutes after dosing): approximately 600 ng/mL; plasma levels of indolocarbazole I-5 ([8]; 2 hours after dosing): approximately 80 ng/mL; plasma levels of I-5 ([8]; oral dose 8.01 mg/kg, limit of quantitation): < 50 ng/mL; conversion to I-5 in vivo ([8]; rat): rapidly converted; plasma levels of I-5 ([8]; subcutaneous 8.01 mg/kg, all time points examined): approximately 70 ng/mL"
"COC1(CO)CC2OC1(C)n1c3ccccc3c3c4c(c5c6ccccc6n2c5c31)C(=O)NC4 (stereo not shown) [Example I-5, reference compound]",,,,,,,,,,,,0.7 ± 0.1 cm^3,1.6 ± 0.2 cm^3,2.1 ± 0.1 cm^3,5.4 ± 0.7 cm^3,11.6 ± 1.8 cm^3,effective,53%,growth inhibition of Dunning R-3327 AT-2 rat prostate tumor in vivo [9]: growth inhibitory properties

# From patent USRE38332E1, “Selected soluble esters of hydroxyl-containing indolocarbazoles” (Cephalon, Inc., priority 1995, dated 2003)
